Laboratory results as given in paper PMC4457840, “Differential Inhibition of Signal Peptide Peptidase Family Members by Established γ-Secretase Inhibitors” (PLoS ONE, 2015).
Entries after “also recorded” stand apart in the source; their conditions may differ. Read-outs that look alike come from different tables or passages of the source. Numbered stars: 1 amine (or outer) side, 2 acyl side, 3 side chain; on linkers, the order of the positions; unused ones are H or OH. Square brackets hold non-standard residues; d marks the D form. Peptide text beside a SMILES is read from it. * marks the point of attachment. X1 = CC(N[*:1])C(=O)C(F)(F)C(=O)[*:2]; Boc = CC(C)(C)OC(=O)*

Columns and labels:
SPPL2a [1] = system: T1, SPPL2a; test: Endogenous CD74 NTF P8 turnover in non-overexpressing A20 cells (Western blot, In-1 antibody); type: cell-based, mouse; conditions: for stabilization of the CD74 8 kDa NTF P8: 25 μM, 16 hr; for dose response of P8 fragment stabilization (in words): different doses; for lowest concentration inhibiting P8 turnover: dose response
T1 construct: endogenous SPPL2a cleavage of CD74 in a murine B-Cell line; host or cells: A20 mouse B lymphocyte cells
Protocol: (§1) Untagged versions of all enzymes were also made and ligated into the pAG3 vector. Substrates (Fig 1) were designed as follows: FLAG-BRI2_1-81- Aβ1-25/K16A (FBA). The K16A mutation was incorporated to prevent potential α-secretase cleavage that would preclude ELISA based detection of the released COOH-terminal fragment. The substrate DNA was cloned into the expression vector pcDNA6. Constructs were confirmed by DNA sequencing. The overexpression of substrates was performed by transiently transfecting human embryonic kidney (HEK 293T) cells with or without SPP/SPPL vectors. Cells were grown in DMEM media supplemented with Hyclone 10% fetal bovine serum (GE, Logan, Utah, USA) and 1% penicillin/streptomycin (Life Technologies, Grand Island, NY, USA). Briefly, 2.7 μg DNA was applied to a 75% confluent 6 well plate (Corning, Tewksbury, MA, USA) using the polycation polyethylenimine (PEI) transfection method. Inhibitor testing experiments were conducted in 48 well plates with appropriately adjusted amounts of DNA and PEI and incubated 12–16 hours, after which the growth medium was replaced with fresh medium. DMSO (Sigma, St. Louis, MO, USA) and GSIs were added at the appropriate concentration. The GSIs, L685,458 and Compound W were purchased from Tocris (Tocris, Bristol, UK). (Z-LL)2 ketone, Compound E, DAPT, GSI II were purchased from Calbiochem (Merck Millipore, Billerica, MA, USA). LY-411,575 was synthesized by A. Fauq at the Mayo Clinic Chemical Core. Twenty-four hours later, the medium was collected for assay by ELISA and MS. A20 cells (TIB-208) (ATCC, Manassas, VA, USA) were cultured in RPMI-1640 medium (ATCC) supplied with 10% fetal bovine serum, 1% penicillin/streptomycin and 0.05 mM 2-mercaptoethanol (Life Technologies). At the density of 5x10^5 cells/ml, A20 cells were spun down at 1000 g for 2 min and resuspended in fresh medium supplied with DMSO or GSIs and incubated for 16 hr.
(§2) Sandwich ELISAs used for Aβ detection were performed as previously described. Briefly, Aβ and Aβ adducts with substrate TMD in conditioned media was captured with Ab5 antibody (human Aβ1–16 specific) and detected with horseradish peroxidase mAb 4G8 (Covance, Princeton, NJ, USA). Synthetic Aβ1–40 was used as standard. All ELISAs were developed with TMB substrate (KPL, Gaithersburg, Maryland, USA). Bis-Tris precast gels (Biorad, Hercules, CA, USA) were used for all SDS-PAGE. Monoclonal anti-FLAG M2 antibody (Sigma) and Aβ1–16 antibody 6E10 (Covance) were used for Western blotting. Antisera against SPPL2a, SPPL2b, hSPP and pSPP were generated as previously described and were used at dilution of 1:1000 for Western blotting. Anti-CD74 In-1 antibody (BD Bioscience, San Jose, CA, USA) was used for A20 cell lysate Western blotting at dilution of 1:1000.

pSPP = pSPP (Plasmodium falciparum, UniProt Q8IKQ9); test: FBA/pSPP co-transfected HEK 293T cell cleavage assay (Aβ ELISA, Western blot, IP/MS); type: cell-based, human; conditions: for inhibition at 25 µM: read-out: inhibition of the SPP/SPPLs; for rank order of inhibition: number in parenthesis in Table 3
Description: as §1, with “Expression constructs in pcDNA6 for COOH-terminal FLAG (DYKDDDDK) and strep (WSHPQFEK) tagged SPPL2a, SPPL2b, hSPP and pSPP were generated as previously described. Untagged” for “Untagged”
as §2
Immunoprecipitation and mass spectrometry of xAβ1–25 in conditioned media were performed as previously described. In this study, 10 ml conditioned media were used for each experiment. ICDs were immunoprecipitated with anti-FLAG M2 magnetic beads. Cells from 10 cm dished treated with DMSO or 20 μM LY-411,575 were used for each test.

SPPL2a [2] = target: T2, SPPL2a (Homo sapiens, UniProt Q8TCT8); test: FBA/SPPL2a co-transfected HEK 293T cell cleavage assay (Aβ ELISA, Western blot); type: cell-based; conditions: for inhibition of xAβ1-25/K16A secretion (in words) / inhibition at 25 µM: 25 μM; for IC50: HEK cells, 24 h, xAβ1-25/K16A by Aβ ELISA, mean ± standard error, read-out: IC50 on FBA/SPPL co-transfected cells; for inhibition at 25 µM: HEK-293T, DMSO = 100%, read-out: inhibition of the SPP/SPPLs; for rank order of inhibition: number in parenthesis in Table 3
T2 construct: expressed in transfected cells; host or cells: HEK 293T
T2 sequence (Q8TCT8 26-520): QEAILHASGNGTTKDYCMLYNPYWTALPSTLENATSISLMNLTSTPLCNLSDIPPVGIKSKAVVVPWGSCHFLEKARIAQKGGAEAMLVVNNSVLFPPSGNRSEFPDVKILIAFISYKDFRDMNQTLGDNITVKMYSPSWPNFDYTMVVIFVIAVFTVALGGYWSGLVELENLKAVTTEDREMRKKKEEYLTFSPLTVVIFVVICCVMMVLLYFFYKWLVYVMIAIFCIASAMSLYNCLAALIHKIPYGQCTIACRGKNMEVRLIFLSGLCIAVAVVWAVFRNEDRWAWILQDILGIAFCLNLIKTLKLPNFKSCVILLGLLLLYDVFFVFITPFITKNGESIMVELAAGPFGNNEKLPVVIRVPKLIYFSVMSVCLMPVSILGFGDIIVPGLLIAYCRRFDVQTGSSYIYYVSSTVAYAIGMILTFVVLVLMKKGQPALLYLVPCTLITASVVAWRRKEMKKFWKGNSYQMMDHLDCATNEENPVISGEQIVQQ
Description: as §1, with “Expression constructs in pcDNA6 for COOH-terminal FLAG (DYKDDDDK) and strep (WSHPQFEK) tagged SPPL2a, SPPL2b, hSPP and pSPP were generated as previously described. Untagged” for “Untagged”
as §2

pSPP, sequence (Q8IKQ9 entry or part of it): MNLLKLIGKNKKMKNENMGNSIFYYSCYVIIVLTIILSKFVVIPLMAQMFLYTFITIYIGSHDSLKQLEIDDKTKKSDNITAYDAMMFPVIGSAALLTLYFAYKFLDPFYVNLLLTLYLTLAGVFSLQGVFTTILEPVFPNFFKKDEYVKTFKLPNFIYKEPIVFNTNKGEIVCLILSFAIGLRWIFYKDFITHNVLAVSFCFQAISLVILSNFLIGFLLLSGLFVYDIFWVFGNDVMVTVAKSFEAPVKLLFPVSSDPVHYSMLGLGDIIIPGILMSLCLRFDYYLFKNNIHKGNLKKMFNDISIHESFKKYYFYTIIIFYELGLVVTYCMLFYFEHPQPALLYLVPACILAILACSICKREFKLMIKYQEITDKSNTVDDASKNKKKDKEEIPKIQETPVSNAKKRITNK

SMILES | stabilization of the CD74 8 kDa NTF P8 (SPPL2a [1]) | dose response of P8 fragment stabilization (in words) (SPPL2a [1]) | lowest concentration inhibiting P8 turnover (SPPL2a [1]) [nM] | IC50 (pSPP) [nM] | inhibition at 10 µM (pSPP; HEK-293T, pSPP, 10 μM, overnight, Aβ ELISA) [%] | inhibition at 25 µM (pSPP; HEK-293T, pSPP, 25 μM, ELISA, DMSO = 100%) [%] | FBA cleavage by co-transfected SPPL (in words) (pSPP; pSPP, 10 μM, Aβ ELISA, Fig 1D) | generation of the SPP/SPPL dependent 10 kDa ICD (pSPP; pSPP, 10 μM, Western blot anti-FLAG M2) | inhibition of xAβ1-25/K16A secretion (in words) (pSPP; pSPP, 25 μM, ELISA) | rank order of inhibition (pSPP; pSPP) | FBA cleavage by co-transfected SPPL (in words) (SPPL2a [2]; 10 μM, Aβ ELISA, Fig 1D) | generation of the SPP/SPPL dependent 10 kDa ICD (SPPL2a [2]; 10 μM, Western blot anti-FLAG M2) | inhibition of xAβ1-25/K16A secretion (in words) (SPPL2a [2]; ELISA) | IC50 (SPPL2a [2]) [nM] | inhibition at 25 µM (SPPL2a [2]; ELISA) [%] | rank order of inhibition (SPPL2a [2]) | inhibition of SPPL2a in dose response (SPPL2a [2]; at the doses tested, ELISA) [%] | inhibition at 25 µM (pSPP; HEK-293T) [%] | cleavage products in conditioned media by IP/MS (pSPP; pSPP, 20 μM)
CC(C)C[C@H](NC(=O)OCc1ccccc1)C(=O)N[C@@H](CC(C)C)C(=O)NCC(=O)CNC(=O)[C@H](CC(C)C)NC(=O)[C@H](CC(C)C)NC(=O)OCc1ccccc1 [(Z-LL)2 ketone] | greatly stabilized | stabilized the P8 fragment in a dose dependent manner | 40 | 472 ± 114 | > 75 | > 90 | largely inhibited | significantly reduced | largely inhibited | 3 | largely inhibited | significantly reduced | largely inhibited | 177 ± 99 | > 90 | 2 | – | – | –
C[C@H](NC(=O)Cc1cc(F)cc(F)c1)C(=O)N[C@H]1N=C(c2ccccc2)c2ccccc2N(C)C1=O [Compound E] | did not show significant effects | – | – | – | – | – | – | – | did not show inhibition | – | – | – | – | – | – | – | < 50 | – | –
C[C@H](NC(=O)Cc1cc(F)cc(F)c1)C(=O)NC(C(=O)OC(C)(C)C)c1ccccc1 (stereo partly shown) [DAPT] | no inhibition | – | – | – | – | – | – | – | does not inhibit | – | – | – | does not inhibit | – | – | – | – | – | –
CC[C@H](C)[C@H](NC(=O)[C@@H](NC(=O)OC(C)(C)C)C(C)C)C(=O)NC(C)C(=O)C(F)(F)C(=O)N[C@H](C(=O)N[C@H](C(=O)OC)[C@@H](C)CC)C(C)C (stereo partly shown) [GSI II] (Boc-VI[X1]VI-OMe) | greatly stabilized | stabilized the P8 fragment in a dose dependent manner | 40 | 427 ± 100 | – | – | – | – | efficiently inhibited; also recorded: largely inhibited | 2 | – | – | efficiently inhibited; also recorded: largely inhibited | 8800 ± 94 | – | 4 | – | – | –
C[C@H](NC(=O)[C@@H](O)c1cc(F)cc(F)c1)C(=O)N[C@@H]1C(=O)N(C)c2ccccc2-c2ccccc21 [LY-411,575] | greatly stabilized | stabilized the P8 fragment in a dose dependent manner | 40 | 3480 ± 90 | – | – | – | – | largely inhibited | 4 | – | – | largely inhibited | 51 ± 79 | > 90 | 1 | – | > 90 | No major cleavage product was detected
